Results reported in patent US6841556B2, “Pyrazoloisoquinoline derivatives for inhibiting NFκB-inducing kinase” (Aventis Pharma Deutschland GmbH, priority 2002, dated 2005).

Assays:
[1] = tested on: human peripheral blood lymphocytes; assay: Cytotoxicity by LDH release, LPS-stimulated human peripheral blood lymphocytes; assay type: cell-based
Procedure: (§1) The pyrazoloisoquinoline derivatives according to the invention were tested for inhibitory activity against NIK in various in vitro assay systems. In this connection, human peripheral blood lymphocytes were preincubated for 1 h with different concentrations of the compounds and then stimulated for 24 h with LPS or IL1β. After that, a commercially obtainable ELISA test kit was used to measure the release of TNFα in the culture supernatant, and the IC50 for the given compound was determined. The cytotoxicity was measured by way of LDH release using a commercially obtainable test kit and the LD50 for the given compound was determined.

[2] = tested on: human peripheral blood lymphocytes; assay: Cytotoxicity by LDH release, IL1β-stimulated human peripheral blood lymphocytes; assay type: cell-based
Procedure: as §1

| Compound | Cytotoxicity LD50 [1] | Cytotoxicity LD50 [2] |
| --- | --- | --- |
| Cc1n[nH]c2c1nc(-c1cccc(O)c1)c1ccccc12 [Example 3, 3-(3-Methyl-1H-pyrazolo[4,3-c]isoquinolin-5-yl)phenol] | >100 µM | >100 µM |
| COc1cccc(-c2nc3c(C)n[nH]c3c3ccccc23)c1 [Example 2, 5-(3-Methoxyphenyl)-3-methyl-1H-pyrazolo[4,3-c]isoquinoline] | >100 µM | >100 µM |
| c1ccc(-c2nc3c(-c4ccccc4)n[nH]c3c3ccccc23)cc1 [Example 1, 3,5-Diphenyl-1H-pyrazolo[4,3-c]isoquinoline] | >100 µM | >100 µM |
